Source: patent US12479816B2, “20-HETE formation inhibitors” (UNIVERSITY OF PITTSBURGH—OF THE COMMONWEALTH SYSTEM OF …, priority 2019, dated 2025)
Read-outs that look alike come from different tables or passages of the source.

Key:
[1] = tested on: 20-HETE formation (CYP4) in HLM; test: Inhibition of 20-HETE formation at 250 or 500 nM in HLM microsomal incubations; assay type: biochemical, human; details: 500 nM compound; HLM 300 μg/ml, AA 100 μM, 20 min
Summary of the method: (§1)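 Liver or kidney microsomes (300 μg/ml) or rCYP4F2 (25 pmol/mL) were incubated with 100 μM arachidonic acid, 1 mM NADPH and compound at 250 or 500 nM in 0.12 M potassium phosphate/5 mM MgCl2 for 20 min at 37 °C. 20-HETE was measured by UPLC-MS/MS against 20-HETE-d6 and expressed as % of vehicle (n=3).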

[2] = HLM stability determination; assay type: in vitro ADME, human; details: HLM 500 μg/ml, 1 μM compound, NADPH, relative to 0 min
Protocol: HLM stability determinations shown in Table 3 were obtained as follows. Microsomal incubates contained HLM (500 μg/ml), test compounds (1 μM) and NADPH (1.3 mM) in a 1 ml total volume of microsomal incubation buffer (0.12 M potassium phosphate buffer containing 5 mM magnesium chloride). Reaction was started by adding NADPH to the incubates and was carried out at 37° C. in a shaking water bath for 60 min. At 0, 15, 30, 45, 60 min, a 50 μl aliquot of incubates was taken out and reaction was stopped by adding aliquot into 200 μl ice-cold acetonitrile. After centrifugation at 14000×g for 5 min, 200 μl supernatant was taken out for UPLC-MS/MS analysis as described above. Values at 0 min were used as corresponding control for test compounds. Varapamil, metoprolol, and warfarin, categorized as fast, moderate and slow metabolism, were used as positive control. Incubates without NADPH group served as negative control.

rCYP4F2 = biological target: T1, rCYP4F2 (Homo sapiens, UniProt P78329); test: Inhibition of 20-HETE formation at 250 or 500 nM in rCYP4F2 incubations; assay type: biochemical; details: 500 nM compound; rCYP4F2 25 pmol/mL; read-out: rCYP4F2 % inh. @ 500 nM
T1 sequence (P78329 5-520): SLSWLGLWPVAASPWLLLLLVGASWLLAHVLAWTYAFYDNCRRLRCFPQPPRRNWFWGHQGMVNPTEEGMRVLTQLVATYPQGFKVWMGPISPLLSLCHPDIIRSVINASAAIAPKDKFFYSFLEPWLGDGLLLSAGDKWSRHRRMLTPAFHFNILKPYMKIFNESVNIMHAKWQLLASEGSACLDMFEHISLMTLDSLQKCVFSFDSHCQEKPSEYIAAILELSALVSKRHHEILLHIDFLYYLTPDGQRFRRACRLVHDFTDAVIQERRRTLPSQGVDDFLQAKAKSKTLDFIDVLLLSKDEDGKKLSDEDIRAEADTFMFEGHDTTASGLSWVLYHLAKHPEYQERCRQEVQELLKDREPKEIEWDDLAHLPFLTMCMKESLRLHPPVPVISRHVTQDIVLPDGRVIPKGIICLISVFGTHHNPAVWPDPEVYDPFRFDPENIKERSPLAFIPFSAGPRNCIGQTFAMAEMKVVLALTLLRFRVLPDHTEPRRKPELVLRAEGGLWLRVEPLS
Summary of the method: as §1

[3] = biological target: formation of EETs and DiHETs (epoxygenase activity) in HLM; test: Selectivity: inhibition of EETs and DiHETs formation (epoxygenase activity) in HLM; assay type: biochemical, human; details: for IC50: sum of EETs and DiHETs
Protocol: Selectivity of compounds for inhibition of 20-HETE formation vs inhibition of formation of 8,9-, 11,12-, 14,15-EET and 5,6-, 8,9-, 11,12-, 14,15-DiHETs was assessed via the simultaneous monitor of formation of 20-HETE and those metabolites under the UPLC-MS/MS assay conditions described above using HLM incubations and the same 12 test compound concentrations (0.1 nM-[…]) used for the IC50 determination experiments. At each of the 12 concentrations, the selectivity of 20-HETE inhibition over the other metabolites was compared. Epoxygenase activity was assessed by the sum of EETs and DiHETEs as percentage of control.

[4] = tested on: 20-HETE formation (CYP4) in RLM; test: Inhibition of 20-HETE formation at 250 or 500 nM in RLM microsomal incubations; assay type: biochemical, rat; details: 500 nM compound; RLM 300 μg/ml
Summary of the method: as §1

[5] = tested on: 20-HETE formation (CYP4) in RKM; test: Inhibition of 20-HETE formation at 250 or 500 nM in RKM microsomal incubations; assay type: biochemical, rat; details: 500 nM compound; RKM 300 μg/ml
Summary of the method: as §1

[6] = tested on: 20-HETE formation (CYP4) in HLM; test: IC50 determination, 20-HETE formation in HLM; assay type: biochemical, human; details: HLM 300 μg/ml, AA 100 μM, 12 concentrations
Protocol: (§2) Microsomal incubations contained HLM, RLM (300 μg/ml), AA (100 μM), NADPH (1 mM) and test compounds at 12 concentrations (0.1 nM-50 μM) in a 1 ml total volume in microsomal incubation buffer (0.12 M potassium phosphate buffer containing 5 mM magnesium chloride). Reaction was started by adding NADPH to the incubates and was carried out at 37° C. in a shaking water bath for 20 min. Reaction was stopped by placing tubes on ice, followed by adding 12.5 μl 20-HETE-d6 as internal standard to each sample. Microsomal incubations were extracted with 3 ml ethyl ether twice, dried down under nitrogen gas and reconstituted in 125 μl 80:20 methanol:deionized H2O for analysis. 20-HETE formation was quantified using the validated UPLC-MS/MS assay described above and normalized by vehicle group. HET0016 (250 nM) was used as positive control. Incubates without NADPH group served as the negative control. IC50 was determined by fitting the dose-response curve using Graphpad Prism nonlinear regression.

[7] = Turbidometric solubility determination; assay type: physicochemical; details: PBS with 1% DMSO, aqueous buffer, kinetic from dmso stock, room temperature
Summary of the method: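 Kinetic turbidimetric solubility: DMSO stocks diluted 1:100 into PBS in triplicate to give 0–600 μM in 1% DMSO. Shaken 2 h at room temperature, then OD620 read. Solubility limit taken as the concentration giving a statistically significant absorbance rise above background.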

[8] = tested on: 20-HETE formation (CYP4) in RLM; test: IC50 determination, 20-HETE formation in RLM; assay type: biochemical, rat; details: RLM 300 μg/ml, AA 100 μM, 12 concentrations
Protocol: as §2

Structure (SMILES) | HLM % inh. @ 500 nM [1] | Stability HLM % @ 30 min [2] | inhibition at 0.5 µM (rCYP4F2) | IC50 [3] | RLM % inh. @ 500 nM [4] | RKM % inh. @ 500 nM [5] | IC50 [6] | solubility at 2 h ([7]; OD620, read-out: Max Solub) | solubility at 2 h ([7]; read-out: Solubility_ug/mL) | EETs Inhibition, % @ 50,000 ([3]; at 50,000 (nM per column head)) | IC50 [8]
c1ccc(CC2CCN(c3ccn[nH]3)CC2)cc1 [Compound 2, 4-Benzyl-1-(1H-pyrazol-5-yl)piperidine] | 59.90% | 61% | 47.6% | > 50000 nM | 0.00% | 0.00% | 0.15 µM |  |  |  | 
COc1cccc(C2CCN(c3ccn[nH]3)CC2)c1 [Compound 7, 4-(3-Methoxyphenyl)-1-(1H-pyrazol-5-yl)piperidine] | 51.70% |  | 6.5% |  | 42.30% | 0.00% | 0.19 µM | 494 µM | 127 µg/mL | 2.6% @ 50,000 | 
COc1cccc(C2CCN(c3cn[nH]c3)CC2)c1 [Compound 8, 4-(3-Methoxyphenyl)-1-(1H-pyrazol-4-yl)piperidine] | 62.70% |  | 48.9% | > 50000 nM | 45.50% | 0.00% | 0.17 µM | 111 µM | 29 µg/mL |  | 

Second part, the compound after the results:

HLM % inh. @ 500 nM [1] | Stability HLM % @ 30 min [2] | inhibition at 0.5 µM (rCYP4F2) | IC50 [3] | RLM % inh. @ 500 nM [4] | RKM % inh. @ 500 nM [5] | IC50 [6] | solubility at 2 h ([7]; OD620, read-out: Max Solub) | solubility at 2 h ([7]; read-out: Solubility_ug/mL) | EETs Inhibition, % @ 50,000 ([3]; at 50,000 (nM per column head)) | IC50 [8] | Structure (SMILES)
86.00% | 0% | 95% |  | 37.00% | 40.00% | 0.05 µM | 482 µM | 137 µg/mL |  |  | CC(=O)Nc1ccc(C2CCN(c3cn[nH]c3)CC2)cc1 [Compound 30, N-(4-(1-(1H-Pyrazol-4-yl)piperidin-4-yl)phenyl)acetamide]
85.00% | 100% | 86% |  | 42.00% | 21.00% | 0.05 µM |  |  |  | 340 nM | COc1ccc(C2CCN(c3cn[nH]c3)CC2)cc1F [Compound 44, 4-(3-Fluoro-4-methoxyphenyl)-1-(1H-pyrazol-4-yl)piperidine]
